According to publication PMC7804203, “Targeting adaptor protein SLP76 of RAGE as a therapeutic approach for lethal sepsis” (Nature Communications, 2021):
Where “and” joins values, the source holds several entries; their conditions need not be identical. Equal values may be shown once.

Columns and labels:
Assay type in all cases: cell-based
[1] = system: IKKα/β phosphorylation, HEK293 cells; assay: Western blot, IKKα/β phosphorylation in transfected HEK293 cells treated with AGEs; conditions: Fig. 4d, AGEs 100 μg/ml, 15 min, single runs Exp1-Exp3
Experimental: (§1) HEK293 cells (3 × 10^5) were cultured to a confluence of 80–90% in a 60 mm dish. Then, cells were transfected with 2 μg of total DNA by using 6 μl GeneJammer reagent (#204130, Agilent, Santa Clara, CA, USA) mixed with Opti-MEM (200 μl final volume) and were then incubated for 5 min at room temperature. RAW264.7 cells (1 × 10^5) were transfected with control siRNA, siRNA targeting AGER or siRNA targeting SLP76 using HiPerFect reagent (#301705, Qiagen, Hilden, Germany). SiRNA diluted in HiPerFect transfection reagent was premixed with Opti-MEM medium at room temperature for 5 min and incubated with cells in a 24-well plate for 48 h.
(§2) Cultured cells in 6-well plates were harvested, washed twice with PBS, and lysed for 30 min on ice in 150 μl of cell lysis buffer (#9803) from CST (Boston, MA, USA) containing 1 mM PMSF and 2 μg/ml leupeptin. Proteins were quantified with the BCA method. Protein samples were resolved by 10% SDS-PAGE, transferred to a nitrocellulose (NC) membrane (#GE10600002), and blocked for 1 h with 5% nonfat milk in Tris-buffered saline containing 0.1% Tween 20 (TBST) at room temperature. After incubation with a specific primary antibody overnight at 4 °C, the membrane was washed with TBST three times. Then, the membrane was incubated with a secondary antibody for 1 h at room temperature. Enhanced chemiluminescence (ECL) (#32109, Thermo Fisher Scientific, Waltham, MA, USA) was used to visualize the protein bands, and images were acquired in a ChemiDoc™ Imaging System (Bio-Rad, Hercules, CA, USA). Each experiment was repeated at least three times.

[2] = system: IKKα/β phosphorylation, RAW264.7 cells; assay: Western blot, AGE-induced IKKα/β activation after TAT-fused peptides; conditions: AGEs+, relative to Ctrl without AGEs = 1
Experimental: as §2

[3] = system: ERK1/2 phosphorylation, RAW264.7 cells; assay: Western blot, ERK1/2 phosphorylation in RAW264.7 cells treated with AGEs; conditions: 15 min (P < 0.05)
Experimental: as §2

[4] = system: p38 MAPK phosphorylation, HEK293 cells; assay: Western blot, p38 MAPK phosphorylation in transfected HEK293 cells treated with AGEs; conditions: Fig. 4b, AGEs 100 μg/ml, 15 min, single runs Exp1-Exp3
Experimental: as §1, §2

[5] = system: interaction between RAGE and SLP76 in HEK293 cells; assay: Co-IP of Flag-SLP76 with HA-RAGE (HA-tag antibody) in HEK293 cells treated with AGEs; conditions: Fig. 1c–e
Experimental: as §1
After transfection for 24 h, HEK293 cells were treated with AGEs at the indicated times and doses. Then, cells were collected and lysed with lysis buffer, and protein was quantitated with a bicinchoninic acid (BCA) kit (#23227, Thermo Fisher Scientific, Waltham, MA, USA). Total input protein (500 µg) was incubated with anti-FLAG M2 beads or anti-HA affinity gel overnight at 4 °C. After brief centrifugation, samples were washed five times with lysis buffer containing 0.1% Tween 20. Samples were then resolved by SDS-PAGE and subjected to western blotting with a specific antibody against the HA or Flag tag.

[6] = system: p38 MAPK phosphorylation, RAW264.7 cells; assay: Western blot, p38 MAPK phosphorylation in RAW264.7 cells treated with AGEs; conditions: 15 min (P < 0.05)
Experimental: as §2

[7] = system: ERK1/2 phosphorylation, RAW264.7 cells; assay: Western blot, AGE-induced ERK1/2 activation after TAT-fused peptides; conditions: AGEs+, relative to Ctrl without AGEs = 1
Experimental: as §2

[8] = system: p38 MAPK phosphorylation, RAW264.7 cells; assay: Western blot, AGE-induced p38 MAPK activation after TAT-fused peptides; conditions: AGEs+, relative to Ctrl without AGEs = 1
Experimental: as §2

[9] = system: ERK1/2 phosphorylation, HEK293 cells; assay: Western blot, ERK1/2 phosphorylation in transfected HEK293 cells treated with AGEs; conditions: Fig. 4c, AGEs 100 μg/ml, 15 min, single runs Exp1-Exp3
Experimental: as §1, §2

[10] = system: JNKs phosphorylation, RAW264.7 cells; assay: Western blot, JNK phosphorylation in RAW264.7 cells treated with AGEs; conditions: AGEs 100 μg/ml; for JNK phosphorylation: Supplementary Fig. 4, single runs Exp1-Exp3
Experimental: as §2

Substance: AGEs: AGEs-BSA (#2221-10) purchased from Biovision; advanced glycation end products, RAGE ligand
- phosphorylated IKKα/β ([1]; RAGE overexpressed): 12.7634 and 9.791 and 10.05
- phosphorylated IKKα/β ([1]; RAGE+SLP76 overexpressed): 21.1403 and 18.74 and 17.6458
- phosphorylated IKKα/β ([1]; SLP76 overexpressed): 5.321 and 6.4 and 5.551
- phosphorylated IKKα/β ([1]; control vector): 8.805 and 7.3 and 6.5457
- Relative IKKα/β phosphorylation, Supplementary figure 11e ([2]; Exp1): 3.559
- Relative IKKα/β phosphorylation, Supplementary figure 11e ([2]; Exp2): 4.547
- Relative IKKα/β phosphorylation, Supplementary figure 11e ([2]; Exp3): 6.152
- Phosphorylation of ERK1/2 [3]: increased significantly
- phosphorylated p38 MAPK ([4]; RAGE overexpressed): 1.6247 and 1.965 and 1.83
- phosphorylated p38 MAPK ([4]; RAGE+SLP76 overexpressed): 2.026 and 2.548 and 2.612
- phosphorylated p38 MAPK ([4]; SLP76 overexpressed): 1.3753 and 1.591 and 1.725
- phosphorylated p38 MAPK ([4]; control vector): 1.2576 and 1.45 and 1.104
- RAGE/SLP76 binding after exposure to AGEs [5]: dose- and time-dependent
- Phosphorylation of p38 MAPK [6]: increased significantly
- Relative ERK1/2 phosphorylation, Supplementary figure 11d ([7]; Exp1): 3.946
- Relative ERK1/2 phosphorylation, Supplementary figure 11d ([7]; Exp2): 5.325
- Relative ERK1/2 phosphorylation, Supplementary figure 11d ([7]; Exp3): 6.025
- Relative p38 MAPK phosphorylation, Supplementary figure 11c ([8]; Exp1): 2.6013
- Relative p38 MAPK phosphorylation, Supplementary figure 11c ([8]; Exp2): 2.501
- Relative p38 MAPK phosphorylation, Supplementary figure 11c ([8]; Exp3): 3.172
- phosphorylated ERK1/2 ([9]; RAGE overexpressed): 4.032 and 4.674 and 4.165
- phosphorylated ERK1/2 ([9]; RAGE+SLP76 overexpressed): 5.962 and 6.497 and 6.322
- phosphorylated ERK1/2 ([9]; SLP76 overexpressed): 3.146 and 2.87 and 3.315
- phosphorylated ERK1/2 ([9]; control vector): 3.0116 and 3.25 and 2.795
- Phosphorylation of JNKs ([10]; 0-240 min, n=3): no significant difference between groups
- JNK phosphorylation ([10]; 5 min): 0.9831 and 1.298 and 1.325
- JNK phosphorylation ([10]; 15 min): 1.062 and 0.8245 and 0.7215
- JNK phosphorylation ([10]; 30 min): 1.133 and 1.03 and 0.8721
- JNK phosphorylation ([10]; 60 min): 1.061 and 0.95 and 0.8845
- JNK phosphorylation ([10]; 90 min): 1.254 and 1.05 and 0.7684
- JNK phosphorylation ([10]; 120 min): 1.217 and 0.98 and 0.8649
- JNK phosphorylation ([10]; 240 min): 1.277 and 0.91 and 0.7954
